Results taken from PMC4904373, “Azole Antifungal Sensitivity of Sterol 14α-Demethylase (CYP51) and CYP5218 from Malassezia globosa” (Scientific Reports, 2016).
Converted amounts (≈) assume the structure as drawn. “And” between values parts separate entries of the source, which are not always exact repeats. Equal entries are not always repeated. Where two headings read alike, the source gives them in different places.

Columns and labels:
M. globosa CYP51 [1] = target: T1, M. globosa CYP51 (Malassezia globosa, UniProt A8Q3I7, A7V/E4L/G6A/I5L/L2A/Q3L/W8F); experiment: biochemical; type: binding
Experimental: (§1) Reduced carbon monoxide difference spectroscopy[46][47] and absolute spectra between 700 and 300 nm were used to determine cytochrome P450 concentrations. Substrate and azole binding studies were performed[31][48] using 2.5 mM stock sterol solutions in 40% (wt/vol) (2-hydroxypropyl)-β-cyclodextrin (HPCD), 4 mg ml^−1 solutions of fatty acids in dimethylformamide (DMF), and stock 0.05, 0.1 and 0.2 mg ml^−1 solutions of azole antifungal agents in dimethylsulfoxide (DMSO). Sterols were titrated against 5 μM CYP51, fatty acids were titrated against 4 μM CYP5218 and azole antifungal agents were titrated against 2 μM CYP51 and CYP5218. The absorbance difference spectrum between 500 and 350 nm was determined after each incremental addition of ligand with saturation curves constructed from ΔApeak-trough against ligand concentration. The dissociation constants (Kd) for sterols and fatty acids were determined by non-linear regression (Levenberg-Marquardt algorithm) using the Michaelis-Menten equation. The dissociation constants of the enzyme-azole complex were determined by non-linear regression (Levenberg-Marquardt algorithm) using a rearrangement of the Morrison equation for tight ligand binding. ProFit 6.1.12 (QuantumSoft, Zurich, Switzerland) was used for curve-fitting data. All ligand-binding studies were performed at 22 ± 2 °C and in triplicate. All spectral determinations were made using a Hitachi U-3310 UV/VIS spectrophotometer (San Jose, California).

M. globosa CYP5218 = M. globosa CYP5218 (Malassezia globosa, UniProt A8QCD3, A3L/A5L/F6A/I7V/S4L/S8F); experiment: biochemical; type: binding; conditions: for azole binding to CYP5218 (binding spectra): 2 μM CYP5218, result in words
Experimental: as §1

M. globosa CYP51 [2] = target: T1, M. globosa CYP51; experiment: biochemical
Experimental: Sterol metabolites were recovered by extraction with ethyl acetate followed by derivatization with 0.1 ml N,O-bis(trimethylsilyl)trifluoroacetamide (BSTFA) : trimethylchlorosilane (TMCS) (99:1) and 0.3 ml anhydrous pyridine (2 h at 80 °C) prior to analysis by gas chromatography mass spectrometry (GC/MS)[53].

M. globosa ATCC MYA-4612 = experiment: M. globosa MIC100 determination; type: cell-based, Malassezia globosa; conditions: for MIC: Malassezia globosa, 168 h, read-out: MIC100
Experimental: M. globosa ATCC MYA-4612 was grown for 7 days at 30 °C in modified Dixon medium (3.6% malt extract, 2% desiccated ox-bile, 1% Tween 40, 0.6% peptone, 0.2% glycerol, 0.2% oleic acid, pH adjusted to 6 with HCl) until a culture density of 1.5 × 10^5 cells ml^−1 was obtained. Cells from 3 ml of stock culture were harvested, suspended in 1 ml of saline and used to inoculate 30 ml of fresh modified Dixon medium for use as M. globosa inoculums in MIC determinations. Stock azole concentrations of 1600, 800, 400, 200, 100, 50, 25, 12.5, 6.25, 3.125 and 0 μg ml^−1 were prepared in DMSO. These were diluted ten-fold with fresh modified Dixon media and 20 μl of the diluted azole solutions were then mixed with 180 μl of M. globosa inoculum in microtiter plate wells to yield final azole concentrations of 16, 8, 4, 2, 1, 0.5, 0.25, 0.125, 0.0625, 0.03125 and 0 μg ml^−1. The microtiter plates were incubated at 30 °C for 7 days and then read. Each azole MIC100 determination was performed in triplicate.

M. globosa [3] = experiment: Sterol analysis of azole-treated M. globosa; type: cell-based, Malassezia globosa; conditions: 4 μg ml^−1 ketaminazole
Experimental: Individual sterols were identified by reference to relative retention times, mass ions and fragmentation patterns. Sterol composition was calculated using peak areas.

C. albicans CYP51 = target: C. albicans CYP51; set-up: method as in PMID 23826084; conditions: cited from earlier work
H. sapiens CYP51 = target: H. sapiens CYP51; set-up: method as in PMID 23826084; conditions: cited from earlier work
M. globosa [4] = system: M. globosa
M. globosa [5] = conditions: cited from earlier work

T1 sequence (A8Q3I7 whole entry L2A/Q3L/E4L/I5L/G6A/A7V/W8F): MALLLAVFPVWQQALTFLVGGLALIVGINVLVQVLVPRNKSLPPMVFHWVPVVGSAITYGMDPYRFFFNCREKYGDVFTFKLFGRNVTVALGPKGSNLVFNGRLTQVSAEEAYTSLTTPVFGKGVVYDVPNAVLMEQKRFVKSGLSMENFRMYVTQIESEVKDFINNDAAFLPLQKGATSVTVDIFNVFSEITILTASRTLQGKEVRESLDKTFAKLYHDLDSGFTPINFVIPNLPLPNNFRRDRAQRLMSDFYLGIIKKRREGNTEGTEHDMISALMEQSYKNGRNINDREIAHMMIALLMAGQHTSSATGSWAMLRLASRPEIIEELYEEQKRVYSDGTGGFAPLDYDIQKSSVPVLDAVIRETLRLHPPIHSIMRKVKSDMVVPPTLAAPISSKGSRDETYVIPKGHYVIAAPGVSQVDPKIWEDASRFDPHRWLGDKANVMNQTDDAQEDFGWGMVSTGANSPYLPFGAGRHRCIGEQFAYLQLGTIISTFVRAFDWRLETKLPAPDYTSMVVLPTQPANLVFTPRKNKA

With `CC(=O)N1CCN(c2ccc(NCC3COC(Cn4ccnc4)(c4ccc(Cl)cc4Cl)O3)cc2)CC1` (centres unmarked) [ketaminazole] as the molecule, how does the Kd (M. globosa CYP51 [1]; azole titrated against 2 μM CYP51, Morrison equation) read?
Its Kd is 0.003 ± 0.001 µM.

What about the “azole binding to CYP5218 (binding spectra)” value (M. globosa CYP5218) of the same molecule?
The value was “type II binding spectra”.

What about the Kd (M. globosa CYP5218; azole titrated against 2 μM CYP5218) of the same molecule?
Its Kd is ~12 µM and ~11.7 µM.

What about the IC50 (M. globosa CYP51 [2]; 0.5 μM CYP51, CYP51:AfCPR1 1:2, 50 μM lanosterol as substrate) of the same molecule?
Its IC50 is 0.321 ± 0.042 µM.

What about the growth inhibition (M. globosa ATCC MYA-4612; 4 μg ml^−1) of the same molecule?
The growth inhibition was “partial inhibition of growth”.

And the MIC (M. globosa ATCC MYA-4612)?
Its MIC is 8 µg/mL (≈ 15.1 µM).

What about the “sterol fraction (%) 4,4-dimethylzymosterol” value (M. globosa [3]) of the same molecule?
Its value is 0.62%.

And the “sterol fraction (%) Eburicol” value (M. globosa [3])?
The value was 14.63%.

And the “sterol fraction (%) Episterol” value (M. globosa [3])?
Its value is 0.63%.

What about the “sterol fraction (%) Ergosta-5,7-dienol” value (M. globosa [3]) of the same molecule?
The value was 13.85%.

And the “sterol fraction (%) Ergosta-7-enol” value (M. globosa [3])?
Its value is 5.00%.

And the “sterol fraction (%) Ergosta-8,22-dienol” value (M. globosa [3])?
Its value is 5.35%.

And the “sterol fraction (%) Ergosta-8-enol” value (M. globosa [3])?
Its value is 0%.

What about the “sterol fraction (%) Ergosterol” value (M. globosa [3]) of the same molecule?
The value was 54.64%.

What about the “sterol fraction (%) Fecosterol” value (M. globosa [3]) of the same molecule?
The value was 0.54%.

What about the “sterol fraction (%) Obtusifoliol” value (M. globosa [3]) of the same molecule?
The value was 3.52%.

What about the “sterol fraction (%) Cholesterol” value (M. globosa [3]; cholesterol assimilated from growth media) of the same molecule?
Its value is 1.21%.

What about the Kd (C. albicans CYP51) of the same molecule?
The Kd was 0.043 µM.

What about the Kd (H. sapiens CYP51) of the same molecule?
Its Kd is 0.731 µM.

For `C=CC[C@@H]1/C=C(\C)C[C@H](C)C[C@H](OC)[C@H]2O[C@@](O)(C(=O)C(=O)N3CCCC[C@H]3C(=O)O[C@H](/C(C)=C/[C@@H]3CC[C@@H](O)[C@H](OC)C3)[C@H](C)[C@@H](O)CC1=O)[C@H](C)C[C@@H]2OC` [FK-506], which “concentration above which cytotoxic towards M. globosa” value (M. globosa [4]) is on record?
The value was “above 0.0625 μg ml^−1”.

What does the source list for `OC(Cn1cncn1)(Cn1cncn1)c1ccc(F)cc1F` [fluconazole]?
Kd (M. globosa CYP51 [1]): 0.011 ± 0.004 µM; azole binding to CYP5218 (binding spectra) (M. globosa CYP5218): did not bind; azole binding to CYP5218 (binding spectra) (M. globosa CYP5218; listed as Fluconazole): no reproducible binding spectra; IC50 (M. globosa CYP51 [2]; IC50, 0.5 μM CYP51, CYP51:AfCPR1 1:2, 50 μM lanosterol as substrate): 0.206 µM and 0.2 µM; MIC (M. globosa ATCC MYA-4612; modified Dixon medium, 30 °C, 7 days): 64 µg/mL (≈ 209 µM); MIC values previously reported (M. globosa [5]): 4 µg/mL (≈ 13.1 µM)
